In US11135309B2, “Poly(vinyl alcohol) nanocarriers” (THE REGENTS OF THE UNIVERSITY OF CALIFORNIA, priority 2015, dated 2021):

Assays:
[1] = blood cell count after the last dosage in the therapeutic study; type: in vivo, mice
Description: (§1) Tumor bearing mice (n=6-8) were intravenously administered PBS; Velcade® (0.8 mg/kg); BTZ-PVA (0.8, 1.2 mg/kg); DOX (4 mg/kg); DOX-DCMs (4 mg/kg); BTZ 0.8 mg/kg followed by DOX 4 mg/kg 24 h later; or BTZ-PVA 0.8 mg/kg followed by DOX-DCMs 24 h later every four days for a total of 6 doses. Data represent mean±SEM.

[2] = serum chemistry (hepatic and renal function panel) in the therapeutic study; type: in vivo, mice; conditions: day 7 after the last dosage
Description: as §1

[3] = test system: subcutaneous MDA-MB-231 breast cancer xenografts; assay: in vivo therapeutic study, breast cancer xenograft; parameters: species or system nude mice; conditions: 5 mg/kg intravenous, every four day, 6 doses
Description: In vivo therapeutic study. Subcutaneous MDA-MB-231 breast cancer xenografts were implanted into nude mice as described above. […] On day 0, these mice were randomly divided into three groups, with five mice in each group. […] Tumor volume was calculated by the formula (L×W^2)/2, where L is the longest and W is the shortest in tumor diameters(mm). Anti-tumor efficacy in breast cancer xenograft mouse mode The anti-tumor effects of DOX-PVA-LA NPs after intravenous injection were evaluated in subcutaneous MDA-MB-231 tumor bearing mice.

[4] = in vitro DOX release from PPNs by dialysis; type: physicochemical; conditions: PBS 37° C., within the first 5 hrs
Description: In vitro drug release profiles were carried out using the dialysis method. Aliquots of DOX-loaded PPNs solution were injected into a dialysis cartridge with a molecular weight cutoff of 3.5 kDa. The whole dialysis process was carried out at 37° C. with swirling at 70 rpm in the presence of 10 g/L activated charcoal in 1 L PBS buffer. The concentration of DOX remained in the dialysis cartridge at various time points was determined by absorbance measurement.

[5] = test system: SKOV-3 ovarian cancer cells; assay: cellular uptake (flow cytometry, confocal microscopy); type: cell-based
Description: The uptake profiles of DOX-loaded PPNs in SKOV-3 ovarian cancer cells were qualitatively observed by confocal microscopy. SKOV-3 cells were seeded in an 8-well slide. […] Then the cells were washed thrice with PBS buffer, fixed with 4% paraformaldehyde for 15 min. The nuclei were stained with DAPI. The slides were mounted with coverslips and observed by confocal microscopy.
The cellular uptake efficiency of PPNs in SKOV3 ovarian cancer cells was quantified with flow cytometry at different incubation time points (FIG. 19a). […] Additionally, a marked increase in porphyrin fluorescence from PPNs was visualized in the cytoplasm at 6 hrs, compared to that at 30 min after incubation.

[6] = test system: subcutaneous SKOV-3 tumor; assay: phototherapy and tumor response; type: in vivo, mice
Description: Phototherapy and tumor response. Subcutaneous SKOV-3 tumor-bearing mice were used for in vivo therapeutic study when tumor volumes reached 80-120 mm^3 (designate as Day 0). The therapeutic efficacy and toxicity profiles of different PPNs formulations were evaluated. On day 0, all mice were randomly divided into seven groups (n=6). […] The DOX was given at the dose of 2.5 mg/kg, and PPNs was given at the dose of 2 mg/kg, calculated on the porphyrin content. The treatment was given every 5 days on day 0, 5, 10 and 15 for a total 4 doses. […] Tumor size and body weight were measured twice a week. Tumor volume was calculated using the equation (L×W^2)/2, where L is the longest and W is shortest in tumor diameters (mm). For humane reasons, mice were sacrificed when tumor volume reached 1000 mm^3, which was considered as the end point of survival data.

[7] = in vitro DOX release from PVA-LA NPs by dialysis; type: physicochemical; conditions: PBS, within 1 h
Description: Drug release study. DOX-loaded Cr-PVA-LA NPs solution was prepared to determine the in vitro drug release profile. The initial DOX concentration was 1.0 mg/mL, Aliquots of the DOX-loaded Cr-PVA-LA NPs solution were injected into dialysis cartridges with 3.5 kDa MWCO. The cartridges were dialyzed against 100 volume times PBS solution at 37° C. and rotator rate was set to 100 rpm. […] Values were reported as the means for each triplicate samples.
Loading and Triggered Release of DOX. […] The accumulated release results shown in FIG. 14 represent the total amount of DOX released from different sample. […] More than 50% of DOX were release within 1 h. […] It should be further noted that no burst release was observed even in the presence of NAC. The unique core-shell structure contributes to the constant release rate. This biodegradable PVA-LA NPs is a highly promising approach to controlled drug release.

[8] = in vivo toxicity evaluation; parameters: species or system mice; conditions: 5 days after the last dose
Description: Phototherapy and tumor response. Subcutaneous SKOV-3 tumor-bearing mice were used for in vivo therapeutic study when tumor volumes reached 80-120 mm^3 (designate as Day 0). The therapeutic efficacy and toxicity profiles of different PPNs formulations were evaluated. On day 0, all mice were randomly divided into seven groups (n=6). Mice were intravenously administered with PBS, blank PPNs, DOX·HCl and PPNs-DOX. The DOX was given at the dose of 2.5 mg/kg, and PPNs was given at the dose of 2 mg/kg, calculated on the porphyrin content. The treatment was given every 5 days on day 0, 5, 10 and 15 for a total 4 doses. […] Tumor size and body weight were measured twice a week. Tumor volume was calculated using the equation (L×W^2)/2, where L is the longest and W is shortest in tumor diameters (mm). For humane reasons, mice were sacrificed when tumor volume reached 1000 mm^3, which was considered as the end point of survival data. At day 5 after the last dosage, blood samples were collected from each group to test blood cell counts and serum chemistry.
In vivo toxicity evaluation. The potential toxicity of PPNs and the related formulations was assessed in all treated mice. The body weight change, blood cell counts and serum chemistry including renal and hepatic function panels were monitored. […]

[9] = cumulative BTZ release in PBS medium; type: physicochemical; conditions: PBS pH 7.4, within the first 3 h

SMILES: COc1cccc2c1C(=O)c1c(O)c3c(c(O)c1C2=O)C[C@@](O)(C(=O)CO)C[C@@H]3O[C@H]1C[C@H](N)[C@H](O)[C@H](C)O1 [DOX, doxorubicin]
- Hemoglobin ([1]; 4 mg/kg): 13.6 ± 0.9 g/dL
- Neutrophil cells ([1]; 4 mg/kg): 0.5 ± 0.2 K/μl
- Platelets ([1]; 4 mg/kg): 1618.2 ± 190.5 K/μL
- RBC ([1]; 4 mg/kg): 8.3 ± 0.5 M/μl
- WBC ([1]; 4 mg/kg): 5.8 ± 1.0 K/μl
- ALT ([2]; 4 mg/kg): 42.6 ± 8.6 U/L
- AST ([2]; 4 mg/kg): 167.7 ± 23.4 U/L
- BUN ([2]; 4 mg/kg): 18.0 ± 2.6 mg/dL
- Creatinine ([2]; 4 mg/kg): 0.2 ± 0.0 mg/dL
- Total Bilirubin ([2]; 4 mg/kg): 0.1 ± 0.0 mg/dL
- anti-tumor activity compared with PBS control [3]: significant anti-tumor activity
- DOX released [4]: 90%
- intracellular localization of DOX fluorescence ([5]; 30 min incubation): could be observed in the nuclei
- intracellular localization of DOX fluorescence ([5]; 6 hrs incubation): completely transported into the nuclei
- tumor growth compared to PBS control ([6]; DOX 2.5 mg/kg iv days 0, 5, 10, 15, without light): did not exhibit obvious antitumor effect
- survival compared to PBS control ([6]; without light): no obvious prolonged survival rate
- DOX released [7]: More than 50%
- white blood cell counts [8]: certain decrease

SMILES: CC(C)C[C@H](NC(=O)[C@H](Cc1ccccc1)NC(=O)c1cnccn1)B(O)O [BTZ, [(1R)-3-methyl-1-({(2S)-3-phenyl-2-[(pyrazin-2-ylcarbonyl)amino]propanoyl}amino)butyl] boronic acid]
- Hemoglobin ([1]; 0.8 mg/kg): 14.6 ± 0.6 g/dL
- Neutrophil cells ([1]; 0.8 mg/kg): 0.5 ± 0.4 K/μl
- Platelets ([1]; 0.8 mg/kg): 1424.3 ± 146.2 K/μL
- RBC ([1]; 0.8 mg/kg): 9.2 ± 0.5 M/μl
- WBC ([1]; 0.8 mg/kg): 5.6 ± 1.3 K/μl
- ALT ([2]; 0.8 mg/kg): 28.3 ± 3.3 U/L
- AST ([2]; 0.8 mg/kg): 117.1 ± 26.4 U/L
- BUN ([2]; 0.8 mg/kg): 16.3 ± 2.1 mg/dL
- Creatinine ([2]; 0.8 mg/kg): 0.2 ± 0.1 mg/dL
- Total Bilirubin ([2]; 0.8 mg/kg): 0.1 ± 0.0 mg/dL
- BTZ released [9]: about 80%
